What was measured:
Type in all cases: in vivo
[1] = tested on: giant foxtail (Setaria faberi); assay: Test G Post-Emergence Protocol; settings: Setaria faberi, post-emergence, 312 h, read-out: Foxtail, Giant damage rating; for pest or weed control at 15.625 g/ha: 15.625 g ai/ha, evaluated after 13 days (100=total damage to plant; 0=no damage to plant); for pest or weed control at 62.5 g/ha: 62.5 g ai/ha; for pest or weed control at 62.5 g/ha / pest or weed control at 250 g/ha: evaluated after 13 days, 100=total damage to plant, 0=no damage to plant; for pest or weed control at 250 g/ha: 250 g ai/ha
Outline: (§1)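 Foliar application was made 8 days after sowing, using an aqueous spray of the active in acetone/water (50:50) with 0.5% Tween 20, at doses of 15.625, 62.5 or 250 g/ha. Injury was assessed 13 days later, where 100 meant the plant was fully damaged.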

[2] = tested on: barnyardgrass (Echinochloa crus-galli); assay: Test G Post-Emergence Protocol; settings: Echinochloa crus-galli, post-emergence, 312 h, read-out: Barnyardgrass damage rating; for pest or weed control at 15.625 g/ha: 15.625 g ai/ha, evaluated after 13 days (100=total damage to plant; 0=no damage to plant); for pest or weed control at 62.5 g/ha: 62.5 g ai/ha; for pest or weed control at 62.5 g/ha / pest or weed control at 250 g/ha: evaluated after 13 days, 100=total damage to plant, 0=no damage to plant; for pest or weed control at 250 g/ha: 250 g ai/ha
Outline: as §1

[3] = tested on: redroot pigweed (Amaranthus retroflexus); assay: Test G Post-Emergence Protocol; settings: Amaranthus retroflexus, post-emergence, 312 h, read-out: Pigweed, Redroot damage rating; for pest or weed control at 15.625 g/ha: 15.625 g ai/ha, evaluated after 13 days (100=total damage to plant; 0=no damage to plant); for pest or weed control at 62.5 g/ha: 62.5 g ai/ha; for pest or weed control at 62.5 g/ha / pest or weed control at 250 g/ha: evaluated after 13 days, 100=total damage to plant, 0=no damage to plant; for pest or weed control at 250 g/ha: 250 g ai/ha
Outline: as §1

[4] = tested on: velvetleaf (Abutilon theophrasti); assay: Test G Post-Emergence Protocol; settings: Abutilon theophrasti, post-emergence, 312 h, read-out: Velvetleaf damage rating; for pest or weed control at 15.625 g/ha: 15.625 g ai/ha, evaluated after 13 days (100=total damage to plant; 0=no damage to plant); for pest or weed control at 62.5 g/ha: 62.5 g ai/ha; for pest or weed control at 62.5 g/ha / pest or weed control at 250 g/ha: evaluated after 13 days, 100=total damage to plant, 0=no damage to plant; for pest or weed control at 250 g/ha: 250 g ai/ha
Outline: as §1

corn (Zea mays) [5] = assay: Test G Post-Emergence Protocol; settings: Zea mays, post-emergence, 312 h, read-out: Corn damage rating; for plant injury at 15.625 g/ha: 15.625 g ai/ha, evaluated after 13 days (100=total damage to plant; 0=no damage to plant); for plant injury at 62.5 g/ha: 62.5 g ai/ha; for plant injury at 62.5 g/ha / plant injury at 250 g/ha: evaluated after 13 days, 100=total damage to plant, 0=no damage to plant; for plant injury at 250 g/ha: 250 g ai/ha
Outline: as §1

[6] = tested on: ivy-leaved morning glory (Ipomoea hederacea); assay: Test G Post-Emergence Protocol; settings: Ipomoea, post-emergence, 312 h, read-out: Morningglory, Ivy-leaved damage rating; for pest or weed control at 15.625 g/ha: 15.625 g ai/ha, evaluated after 13 days (100=total damage to plant; 0=no damage to plant); for pest or weed control at 62.5 g/ha: 62.5 g ai/ha; for pest or weed control at 62.5 g/ha / pest or weed control at 250 g/ha: evaluated after 13 days, 100=total damage to plant, 0=no damage to plant; for pest or weed control at 250 g/ha: 250 g ai/ha
Outline: as §1

[7] = tested on: giant foxtail (Setaria faberi); assay: Test G Pre-Emergence Protocol; settings: Setaria faberi, pre-emergence, 312 h, evaluated after 13 days; for pest or weed control at 15.625 g/ha: 15.625 g ai/ha; for pest or weed control at 15.625 g/ha / pest or weed control at 250 g/ha: read-out: Foxtail, Giant damage rating (100=total damage to plant; 0=no damage to plant); for pest or weed control at 62.5 g/ha: 62.5 g ai/ha, 100=total damage to plant, 0=no damage to plant, read-out: Foxtail, Giant damage rating; for pest or weed control at 250 g/ha: 250 g ai/ha
Outline: (§2)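 Under a 24/16° C day/night regime with 14 h light and 65% humidity, sown pots were sprayed after one day with compound (15.625, 62.5 or 250 g/ha; 50:50 acetone/water, 0.5% Tween 20). Damage was assessed visually 13 days later, 0 to 100.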

[8] = tested on: barnyardgrass (Echinochloa crus-galli); assay: Test G Pre-Emergence Protocol; settings: Echinochloa crus-galli, pre-emergence, 312 h, evaluated after 13 days; for pest or weed control at 15.625 g/ha: 15.625 g ai/ha; for pest or weed control at 15.625 g/ha / pest or weed control at 250 g/ha: read-out: Barnyardgrass damage rating (100=total damage to plant; 0=no damage to plant); for pest or weed control at 62.5 g/ha: 62.5 g ai/ha, 100=total damage to plant, 0=no damage to plant, read-out: Barnyardgrass damage rating; for pest or weed control at 250 g/ha: 250 g ai/ha
Outline: as §2

[9] = tested on: redroot pigweed (Amaranthus retroflexus); assay: Test G Pre-Emergence Protocol; settings: Amaranthus retroflexus, pre-emergence, 312 h, evaluated after 13 days; for pest or weed control at 15.625 g/ha: 15.625 g ai/ha; for pest or weed control at 15.625 g/ha / pest or weed control at 250 g/ha: read-out: Pigweed, Redroot damage rating (100=total damage to plant; 0=no damage to plant); for pest or weed control at 62.5 g/ha: 62.5 g ai/ha, 100=total damage to plant, 0=no damage to plant, read-out: Pigweed, Redroot damage rating; for pest or weed control at 250 g/ha: 250 g ai/ha
Outline: as §2

[10] = tested on: velvetleaf (Abutilon theophrasti); assay: Test G Pre-Emergence Protocol; settings: Abutilon theophrasti, pre-emergence, 312 h, evaluated after 13 days; for pest or weed control at 15.625 g/ha: 15.625 g ai/ha; for pest or weed control at 15.625 g/ha / pest or weed control at 250 g/ha: read-out: Velvetleaf damage rating (100=total damage to plant; 0=no damage to plant); for pest or weed control at 62.5 g/ha: 62.5 g ai/ha, 100=total damage to plant, 0=no damage to plant, read-out: Velvetleaf damage rating; for pest or weed control at 250 g/ha: 250 g ai/ha
Outline: as §2

corn (Zea mays) [11] = assay: Test G Pre-Emergence Protocol; settings: Zea mays, pre-emergence, 312 h, evaluated after 13 days; for plant injury at 15.625 g/ha: 15.625 g ai/ha; for plant injury at 15.625 g/ha / plant injury at 250 g/ha: read-out: Corn damage rating (100=total damage to plant; 0=no damage to plant); for plant injury at 62.5 g/ha: 62.5 g ai/ha, 100=total damage to plant, 0=no damage to plant, read-out: Corn damage rating; for plant injury at 250 g/ha: 250 g ai/ha
Outline: as §2

[12] = tested on: ivy-leaved morning glory (Ipomoea hederacea); assay: Test G Pre-Emergence Protocol; settings: Ipomoea, pre-emergence, 312 h, evaluated after 13 days; for pest or weed control at 15.625 g/ha: 15.625 g ai/ha; for pest or weed control at 15.625 g/ha / pest or weed control at 250 g/ha: read-out: Morningglory, Ivy-leaved damage rating (100=total damage to plant; 0=no damage to plant); for pest or weed control at 62.5 g/ha: 62.5 g ai/ha, 100=total damage to plant, 0=no damage to plant, read-out: Morningglory, Ivy-leaved damage rating; for pest or weed control at 250 g/ha: 250 g ai/ha
Outline: as §2

| SMILES | pest or weed control at 15.625 g/ha [1] [%] | pest or weed control at 62.5 g/ha [1] [%] | pest or weed control at 250 g/ha [1] [%] | pest or weed control at 15.625 g/ha [2] [%] | pest or weed control at 62.5 g/ha [2] [%] | pest or weed control at 250 g/ha [2] [%] | pest or weed control at 15.625 g/ha [3] [%] | pest or weed control at 62.5 g/ha [3] [%] | pest or weed control at 250 g/ha [3] [%] | pest or weed control at 15.625 g/ha [4] [%] | pest or weed control at 62.5 g/ha [4] [%] | pest or weed control at 250 g/ha [4] [%] | plant injury at 15.625 g/ha (corn (Zea mays) [5]) [%] | plant injury at 62.5 g/ha (corn (Zea mays) [5]) [%] | plant injury at 250 g/ha (corn (Zea mays) [5]) [%] | pest or weed control at 15.625 g/ha [6] [%] | pest or weed control at 62.5 g/ha [6] [%] | pest or weed control at 250 g/ha [6] [%] | pest or weed control at 15.625 g/ha [7] [%] | pest or weed control at 62.5 g/ha [7] [%] | further results |
| --- | --- | --- | --- | --- | --- | --- | --- | --- | --- | --- | --- | --- | --- | --- | --- | --- | --- | --- | --- | --- | --- |
| Cc1cc(C2CN(C)C(=O)C2C(=O)Nc2cccc(F)c2F)cc(Cl)c1F (stereo not drawn) [Compound 1708] | 40 | 60 | 60 | 40 | 50 | 80 | 0 | 0 | 0 | 0 | 0 | 0 | 10 | 30 | 70 | 20 | 20 | 20 | 60 | 80 | pest or weed control at 250 g/ha [7]: 90%; pest or weed control at 15.625 g/ha [8]: 20%; pest or weed control at 62.5 g/ha [8]: 30%; pest or weed control at 250 g/ha [8]: 60%; pest or weed control at 15.625 g/ha [9]: 0%; pest or weed control at 62.5 g/ha [9]: 0%; pest or weed control at 250 g/ha [9]: 0%; pest or weed control at 15.625 g/ha [10]: 0%; pest or weed control at 62.5 g/ha [10]: 0%; pest or weed control at 250 g/ha [10]: 0%; plant injury at 15.625 g/ha (corn (Zea mays) [11]): 0%; plant injury at 62.5 g/ha (corn (Zea mays) [11]): 0%; plant injury at 250 g/ha (corn (Zea mays) [11]): 0%; pest or weed control at 15.625 g/ha [12]: 0%; pest or weed control at 62.5 g/ha [12]: 0%; pest or weed control at 250 g/ha [12]: 20% |
| CN1C[C@H](c2ccc(C(F)(F)F)cc2)[C@@H](C(=O)Nc2ccc[n+]([O-])c2C(F)(F)F)C1=O (racemic) [Compound 1813] | 0 | 0 | 20 | 0 | 0 | 0 | 0 | 0 | 20 | 0 | 0 | 10 | 0 | 0 | 0 | 0 | 10 | 40 | 0 | 10 | pest or weed control at 250 g/ha [7]: 90%; pest or weed control at 15.625 g/ha [8]: 0%; pest or weed control at 62.5 g/ha [8]: 0%; pest or weed control at 250 g/ha [8]: 10%; pest or weed control at 15.625 g/ha [9]: 0%; pest or weed control at 62.5 g/ha [9]: 0%; pest or weed control at 250 g/ha [9]: 20%; pest or weed control at 15.625 g/ha [10]: 0%; pest or weed control at 62.5 g/ha [10]: 0%; pest or weed control at 250 g/ha [10]: 30%; plant injury at 15.625 g/ha (corn (Zea mays) [11]): 0%; plant injury at 62.5 g/ha (corn (Zea mays) [11]): 0%; plant injury at 250 g/ha (corn (Zea mays) [11]): 0%; pest or weed control at 15.625 g/ha [12]: 0%; pest or weed control at 62.5 g/ha [12]: 0%; pest or weed control at 250 g/ha [12]: 20% |
| CCOc1cc(C2CN(C)C(=O)C2C(=O)Nc2cccc(F)c2F)ccc1Cl (stereo not drawn) [Compound 1686] | 60 | 70 | 80 | 30 | 70 | 80 | 30 | 20 | 40 | 30 | 20 | 40 | 0 | 10 | 60 | 20 | 20 | 70 | 60 | 70 | pest or weed control at 250 g/ha [7]: 90%; pest or weed control at 15.625 g/ha [8]: 40%; pest or weed control at 62.5 g/ha [8]: 70%; pest or weed control at 250 g/ha [8]: 70%; pest or weed control at 15.625 g/ha [9]: 0%; pest or weed control at 62.5 g/ha [9]: 0%; pest or weed control at 250 g/ha [9]: 60%; pest or weed control at 15.625 g/ha [10]: 0%; pest or weed control at 62.5 g/ha [10]: 0%; pest or weed control at 250 g/ha [10]: 40%; plant injury at 15.625 g/ha (corn (Zea mays) [11]): 10%; plant injury at 62.5 g/ha (corn (Zea mays) [11]): 20%; plant injury at 250 g/ha (corn (Zea mays) [11]): 50%; pest or weed control at 15.625 g/ha [12]: 0%; pest or weed control at 62.5 g/ha [12]: 20%; pest or weed control at 250 g/ha [12]: 60% |

Reference: US12077503B2, “Substituted cyclic amides and their use as herbicides” (FMC CORPORATION, priority 2015, dated 2024)
